Measurements as given in patent publication US5204327A, “Treatment of cerebral edema with ANP pharmaceutical compositions” (Ashi Kasei Kogyo Kabushiki Kaisha, priority 1988, dated 1993).

Experiments:
[1] = tested on: ischemic cerebral edema caused by occlusion of middle cerebral artery; assay: Effect on experimental ischemic cerebral edema (MCA occlusion, Tamura model); type: in vivo, male Wistar rats; conditions: rats
Experimental: Using 41 male Wistar rats weighing 250 to 350 g, model animals of ischemic cerebral edema caused by occlusion of middle cerebral artery (hereinafter referred to as "MCA") were prepared according to the method of Tamura et al. (Journal of Cerebral Blood Flow and Metabolism, 1, 53-69 (1981)).
(§1) Peptide (II) obtained in Reference Example 1 was diluted with a physiological saline so that the peptide concentration became 100 μg/10 ml. The solution containing the peptide was continuously administered to eleven rats through the tail vein thereof in an amount of 10 ml per kg of body weight in 20 min so that the total dose of the administered peptide became 100 μg per kg of body weight.
The administration was conducted 6 times according to the following program. The first administration was conducted 30 minutes after the occlusion of MCA. The second administration was conducted in the morning of the next day of the first administration (2nd day). The third administration was conducted after 6 hours from the second administration. The fourth administration was conducted in the morning of the next day of the third administration (3rd day). […]
After one hour from the sixth administration, that is, 3 days after the rats had been subjected to occlusion of MCA, the rats were sacrificed. […] The water content of each of the hemispheres was measured.
The water content of a brain tissue was calculated by the following formula: [formula] wherein: W1 : weight of the cerebral hemisphere (wet basis)
W2 weight of the cerebral hemisphere (dry basis), which is measured after drying the wet cerebral hemisphere at 95° to 100° C. for 3 days.
The water contents calculated were statistically analyzed by the T-test to determine whether or not there is a significant difference between the water content of each of the groups to which peptide (II), peptide (III) and glycerol were individually administered and the water content of the control group to which physiological saline was administered. […]

[2] = tested on: vasogenic cerebral edema caused by cold injury; assay: Effect on experimental vasogenic cerebral edema (cold injury); type: in vivo, male Crj:CD (SD) rats; conditions: rats
Experimental: Using 42 male Crj:CD (SD) rats weighing 300 to 400 g, model animals of vasogenic cerebral edema caused by cold injury were prepared according to the method of Naruse et al. (Brain and Nerve, 33 (6): 569-575 (1981)). (Administration method)
as §1, with “[…]” for “μg/10”, “weight” for “weight in 20 min”, “weight, to thereby obtain a peptide (II)-administeredgroup.” for “weight.”
Peptide (III) was administered to eight rats in the same manner as described above except that peptide (III) was used instead of peptide (II), to thereby obtain a peptide (III)-administered group.
As a control (solvent), 3 ml per kg of body weight of the physiological saline was administered to eleven rats in substantially the same manner as mentioned above, to thereby obtain a physiological saline-administered group.
As a control for the peptide, an aqueous 10% w/v glycerol solution containing 5% w/v fructose and 0.9% w/v sodium chloride was administered to twelve rats so that the total volume of the administered solution became 10 ml per kg of body weight, to thereby obtain a glycerol-administered group.
The administration of each of the peptide (II) solution, peptide (III) solution and physiological saline was started one hour before the making of cold injury and completed in 90 minutes. On the other hand, the administration of the glycerol solution was started 23 hours after the making of cold injury and completed in 30 minutes in accordance with the ordinary clinical method, so that the total volume of the administered glycerol solution became 10 ml/kg of body weight.
24 hours after the rats had been subjected to cold injury, rats were sacrificed under ether anesthesia. […]
The water content of each of the hemispheres was measured in substantially the same manner as in Example 1. […]

[3] = tested on: vasogenic cerebral edema caused by cold injury; assay: Effect on experimental vasogenic cerebral edema (investigation of administration time); type: in vivo, male Crj:CD (SD) rats; conditions: for Water content of injured cerebral hemisphere (the mean ± standard error): peptide 100 μg/kg, glycerol solution 10 ml/kg, 24 hours after injury
Experimental: Using 212 male Crj:CD (SD) rats weighing 300 to 400 g, model animals of vasogenic cerebral edema caused by cold injury were prepared according to the method of Naruse et al. (Brain and Nerve, 33 (6): 569-575 (1981).
as §1, with “[…]” for “100 μg/10”, “to a predetermined number of” for “to eleven”, “of 3” for “of 10”, “in 90” for “in 20”, “weight. Thus, there were obtained six peptide (II)-administered groups.” for “weight.”
As a control (solvent), 3 ml per kg of body, weight of the physiological saline was administered to a predetermined number of rats in substantially the same manner as mentioned above, to thereby obtain six physiological saline-administered groups.
As a control for the peptide, an aqueous 10% w/v glycerol solution containing 5% w/v fructose and 0.9% w/v sodium chloride was administered to a predetermined number of rats in substantially the same manner as mentioned above so that the total volume of the administered solution became 10 ml per kg of body weight, to thereby obtain six glycerol-administered groups.
24 hours after the rats were subjected to injury, rats were exsanguinated under ether anesthesia to kill them. Then, cerebra were extracted from the killed rats and each of the cerebra was individually divided into two cerebral hemispheres, namely, a hemisphere having ischemic part and a hemisphere having no ischemic part. The water content of each of the hemispheres was measured in substantially the same manner as in Example 1. In Table 3, the mean and the standard error of the water content of a brain tissue are shown together with the number of rats (n) subjected to experiment in each group.

[4] = 3 days after MCA occlusion, peptide 100 μg/kg (glycerol 1 g/kg) tail vein, 6 administrations
[5] = 24 hours after cold injury, peptide 100 μg/kg tail vein started one hour before injury, 90 min, glycerol solution 10 ml/kg started 23 hours after injury

OCC(O)CO [Glycerol, glycerol]
Water content of brain tissue (the mean ± standard error), hemisphere having ischemic part [1, 4]: 79.34 ± 0.15 | Water content of brain tissue (the mean ± standard error), hemisphere having no ischemic part [1, 4]: 78.51 ± 0.14 | increase in water content of the cerebral hemisphere having ischemic part, compared to physiological saline-administered group ([1]; MCA occlusion, T-test): significantly inhibited | Water content of brain tissue (the mean ± standard error), injured cerebral hemisphere [2, 5]: 80.65 ± 0.23 | Water content of brain tissue (the mean ± standard error), not injured cerebral hemisphere [2, 5]: 79.62 ± 0.19 | increase in water content of the injured cerebral hemisphere, compared to physiological saline-administered group ([2]; cold injury): not so markedly inhibited | increase in water content of a cerebral hemisphere, compared to physiological saline-administered groups ([3]; administered just after making the cold injury): significantly inhibited | Water content of injured cerebral hemisphere (the mean ± standard error) ([3]; administration 3 hours after the making of cold injury): 81.08 ± 0.20 | Water content of injured cerebral hemisphere (the mean ± standard error) ([3]; administration 6 hours after the making of cold injury): 81.24 ± 0.19 | Water content of injured cerebral hemisphere (the mean ± standard error) ([3]; administration 22 hours after the making of cold injury): 81.05 ± 0.17 | Water content of injured cerebral hemisphere (the mean ± standard error) ([3]; administration during the making of cold injury): 80.79 ± 0.10 | Water content of injured cerebral hemisphere (the mean ± standard error) ([3]; administration just after the making of cold injury): 80.77 ± 0.14 | Water content of injured cerebral hemisphere (the mean ± standard error) ([3]; administration just before the making of cold injury): 81.22 ± 0.20 | increase in water content of the injured cerebral hemisphere, compared to physiological saline-administered groups ([3]; remaining administration times (all except just after the cold injury)): not significantly inhibited
